Assay [1] relates to Fusobacterium necrophorum ATCC 11295. Briefly: MIC vs panel of anaerobes. In kind it is cell-based. Particulars: Fusobacterium necrophorum, ATCC11295, Fusobacterium necrophorum ATCC 11295; procedures of Example 40; read-out: MIC.
Another assay deals with B. fragilis NCTC 10581. Briefly: MIC/MBC against Bacteroides fragilis strain A (96-well microtitre plates, anaerobic chamber). It counts as cell-based. Conditions: Bacteroides fragilis; for MBC: NCTC10581, 99.9% reduction in viable count; for MIC: NCTC10581, 48 h, 48 hours, 37° C., anaerobic. On the procedure:
(§1) The screening panel utilized in this Example consisted of 5 strains of Bacteroides fragilis. All assays were carried out in 96-well microtitre plates. If an isolate was obtained from either a culture collection or clinical source, the isolate was immediately inoculated into Wilkens-Chalgren broth (Oxoid) and incubated at 37° C. in an anaerobic chamber in an atmosphere of 85% nitrogen, 10% carbon dioxide, and 5% hydrogen for 48 hours. At the end of this time, the viable count was about 10^12 organisms/ml broth. A 1 ml aliquot of each culture was placed in an ampoule and quick frozen in acetone-dry ice mixture and stored in liquid nitrogen. When an inoculum was utilized in an assay, one of the ampoules was thawed and diluted with fresh broth to yield a suspension having a count of 5×10^5 organisms/ml. A 100 μl aliquot of this suspension was inoculated into each well of the microtitre plate. A 2 mg sample of the test compound was dissolved in 0.2 ml of a suitable solvent such as dimethylsulfoxide, polyethylene glycol 200 or methanol. […] After addition of the test solution the final inoculum level was 10^5 cells/ml. The plates were incubated for 48 hours at 37° C. in the anaerobic chamber. The Minimum Inhibitory Concentration (MIC) was read visually. The MIC is defined as the lowest concentration at which there is no detectable growth. The Minimum Bactericidal Concentration (MBC) was determined by taking 50 μl aliquot from each well and placing it in fresh medium. […] The strains of Bacteroides fragilis utilized in the above procedure are identified by letter in accordance with the following legend: |A B. fragilis NCTC 10581

Assay [2] deals with Clostridium perfringens NCTC 8237. The experiment in a line: microbe, parasite or virus in culture. Conditions: procedures of Example 40. It counts as cell-based.
The subject of the next assay is B. fragilis NCTC 9343. The experiment in a line: MIC/MBC against Bacteroides fragilis strain B. Particulars: for MBC: NCTC9343, 99.9% reduction in viable count; for MIC: NCTC9343, 48 h, 48 hours, 37° C., anaerobic. It counts as cell-based. How it is done:
as §1, with “|B” for “|A”, “9343” for “10581”

The test system of a further assay is B. fragilis WS-1. The experiment in a line: MIC/MBC against Bacteroides fragilis strain E. It counts as cell-based. Particulars: for MBC: WS1, 99.9% reduction in viable count; for MIC: WS1, 48 h, 48 hours, 37° C., anaerobic. On the procedure: as §1, with “|E” for “|A”, “WS-1*” for “NCTC 10581”
Assay [3] concerns Propionebacterium acnes NCTC 737. Briefly: MIC vs panel of anaerobes. It counts as cell-based. Particulars: procedures of Example 40.
The subject of assay [4] is Costridium difficile NCIB 10666. The experiment in a line: MIC vs panel of anaerobes. In kind it is cell-based, C. difficile. Conditions: Clostridioides difficile, NCIB10666, C. difficile NCIB 10666; procedures of Example 40; read-out: MIC.
The test system of assay [5] is Campylobacter fetus ss. jejuni NCTC 10842. The experiment in a line: MIC vs panel of anaerobes. It counts as cell-based. Conditions: NCTC10842, procedures of Example 40.
The mark [6] stands for this setting: Clostridium perfringens, NCTC8237, Clostridium perfringens NCTC 8237.

In brackets after ≈: the same amount, converted by molar mass.

Turning to `CC1(C)CN=C2C(c3ccccc3)=[N+]([O-])c3cnccc3N2C1` [Example 15, 2,3-Dihydro-2,2-dimethyl-5-phenyl-1H-pyrimido[1,2-a]pyrido[3,4-e]pyrazine 6-oxide], the MIC in assay [1] was less than 0.8 µg/mL; in the assay with B. fragilis NCTC 10581 it was less than 0.8 µg/mL; in assay [2] (setting [6]) it was 12.5 µg/mL (≈ 40.8 µM); against B. fragilis NCTC 9343 it was less than 0.8 µg/mL; in the assay with B. fragilis WS-1, less than 0.8 µg/mL; in assay [3] it was more than 100 µg/mL. In assay [4], the MIC was determined as 1.5 µg/mL (≈ 4.9 µM). Also, the values for the minimum bactericidal concentration (MBC) against B. fragilis NCTC 10581, in the assay with B. fragilis NCTC 9343 and in the assay on B. fragilis WS-1 were less than 0.8 µg/mL, less than 0.8 µg/mL and 1.5 µg/mL (≈ 4.9 µM), respectively.

Turning to `CC1(C)CN=C2C(c3ccc(Cl)cc3)=[N+]([O-])c3cccnc3N2C1` [Example 18, 2,3-Dihydro-5-(4-chlorophenyl)-2,2-dimethyl-1H-pyrimido[1,2-a]pyrido[3,2-e]pyrazine 6-oxide], the MIC in assay [1] was less than 0.8 µg/mL; with B. fragilis NCTC 10581, less than 0.8 µg/mL; in assay [2] (setting [6]) it was 6.2 µg/mL (≈ 18.2 µM); against B. fragilis NCTC 9343, less than 0.8 µg/mL; with B. fragilis WS-1, less than 0.8 µg/mL; in assay [3] it was 100 µg/mL (≈ 293 µM). Moreover, the MIC in assay [4] was less than 0.8 µg/mL. The MBC in the assay on B. fragilis NCTC 10581, in the assay with B. fragilis NCTC 9343 and in the assay on B. fragilis WS-1 was less than 0.8 µg/mL throughout.

For the molecule `CC1CN=C2C(c3ccccc3)=[N+]([O-])c3cccnc3N2C1` (centres unmarked) [Example 32, 2,3-Dihydro-2-methyl-5-phenyl-1H-pyrimido[1,2-a]pyrido[3,2-e]pyrazine 6-oxide], the MIC in assay [1] is less than 0.8 µg/mL; against B. fragilis NCTC 10581 it was less than 0.8 µg/mL; in assay [2] (setting [6]) it was 6.2 µg/mL (≈ 21.2 µM); against B. fragilis NCTC 9343, 1.5 µg/mL (≈ 5.13 µM); in the assay with B. fragilis WS-1, less than 0.8 µg/mL; in assay [5], less than 0.8 µg/mL. Also, the minimum bactericidal concentration (MBC) (usually the lowest tested concentration that kills the bacteria rather than only halting them) against B. fragilis NCTC 10581 is less than 0.8 µg/mL; with B. fragilis NCTC 9343, 1.5 µg/mL (≈ 5.13 µM); in the assay with B. fragilis WS-1 it was less than 0.8 µg/mL.

Regarding `CC1CN=C2C(c3ccccc3)=[N+]([O-])c3cnccc3N2C1` (centres unmarked) [Example 34, 2,3-Dihydro-2-methyl-5-phenyl-1H-pyrimido[1,2-a]pyrido[3,4-e]pyrazine 6-oxide], the MBC against B. fragilis NCTC 10581, against B. fragilis NCTC 9343 and with B. fragilis WS-1 was less than 0.8 µg/mL throughout. The MIC with B. fragilis NCTC 10581, in the assay with B. fragilis NCTC 9343 and in the assay with B. fragilis WS-1 was less than 0.8 µg/mL each time.

Turning to `Cc1ccc(C2=[N+]([O-])c3cnccc3N3CC(C)(C)CN=C23)cc1` [Example 19, 2,3-Dihydro-2,2-dimethyl-5-(4-methylphenyl)-1H-pyrimido[1,2-a]pyrido[3,4-e]pyrazine 6-oxide], the MIC in assay [1] was less than 0.8 µg/mL; in the assay on B. fragilis NCTC 10581, 1.5 µg/mL (≈ 4.68 µM); in assay [2] (setting [6]), 1.5 µg/mL (≈ 4.68 µM); in the assay with B. fragilis NCTC 9343, less than 0.8 µg/mL; in the assay on B. fragilis WS-1 it was 1.5 µg/mL (≈ 4.68 µM); in assay [5], 6.2 µg/mL (≈ 19.4 µM). Moreover, the MBC in the assay with B. fragilis NCTC 10581, with B. fragilis NCTC 9343 and against B. fragilis WS-1 was 1.5 µg/mL (≈ 4.68 µM) throughout.

As for `CC1(C)CN=C2C(c3ccc(F)cc3)=[N+]([O-])c3cnccc3N2C1` [Example 33, 2,3-Dihydro-2,2-dimethyl-5-(4-fluorophenyl)-1H-pyrimido[1,2-a]pyrido[3,4-e]pyrazine 6-oxide], the MBC in the assay with B. fragilis NCTC 10581, in the assay with B. fragilis NCTC 9343 and against B. fragilis WS-1 was less than 0.8 µg/mL each time. Further, the MIC against B. fragilis NCTC 10581, in the assay with B. fragilis NCTC 9343 and against B. fragilis WS-1 was less than 0.8 µg/mL throughout.

`CCCC1(C)CN=C2C(c3ccccc3)=[N+]([O-])c3cnccc3N2C1` (centres unmarked) [Example 27, 2,3-Dihydro-2-methyl-5-phenyl-2-propyl-1H-pyrimido[1,2-a]pyrido[3,4-e]pyrazine 6-oxide]: the minimum bactericidal concentration (MBC) against B. fragilis NCTC 10581 was 1.5 µg/mL (≈ 4.49 µM); against B. fragilis NCTC 9343, less than 0.8 µg/mL; in the assay with B. fragilis WS-1 it was 3.1 µg/mL (≈ 9.27 µM). Further, the MIC in the assay on B. fragilis NCTC 10581 is 1.5 µg/mL (≈ 4.49 µM); against B. fragilis NCTC 9343 it was less than 0.8 µg/mL; in the assay with B. fragilis WS-1 it was 1.5 µg/mL (≈ 4.49 µM).

Consider `CCCC1(C)CN=C2C(c3ccccc3)=[N+]([O-])c3cccnc3N2C1` (centres unmarked) [Example 28, 2,3-Dihydro-2-methyl-5-phenyl-2-propyl-1H-pyrimido[1,2-a]pyrido[3,2-e]pyrazine 6-oxide], for which the MBC against B. fragilis NCTC 10581 is less than 0.8 µg/mL; against B. fragilis NCTC 9343, less than 0.8 µg/mL; with B. fragilis WS-1, 1.5 µg/mL (≈ 4.49 µM). Moreover, the MIC against B. fragilis NCTC 10581, against B. fragilis NCTC 9343 and in the assay with B. fragilis WS-1 was less than 0.8 µg/mL throughout.

Take `[O-][N+]1=C(c2ccccc2)C2=NCC3(CCCCC3)CN2c2ncccc21` [Example 29, Spiro[cyclohexane-1,2'-[2,3]-dihydro-[5]-phenyl-[1H]pyrimido[1,2-a]pyrido[3,2-e]pyrazine [6]-oxide]]: the MIC was 6.2 µg/mL (≈ 17.9 µM) in assay [1]; less than 0.8 µg/mL in the assay with B. fragilis NCTC 9343; less than 0.8 µg/mL with B. fragilis WS-1; 100 µg/mL (≈ 289 µM) in assay [5]; more than 100 µg/mL in assay [3]; less than 0.8 µg/mL in assay [4]. Further, the MBC against B. fragilis NCTC 9343 and in the assay on B. fragilis WS-1 was less than 0.8 µg/mL throughout.

Consider `COc1ccc(C2=[N+]([O-])c3cnccc3N3CC(C)(C)CN=C23)cc1OC` [Example 21], for which the results for the MBC against B. fragilis NCTC 10581, in the assay on B. fragilis NCTC 9343 and with B. fragilis WS-1 were less than 0.8 µg/mL, 1.5 µg/mL (≈ 4.09 µM) and less than 0.8 µg/mL, respectively. In addition, the MIC in the assay with B. fragilis NCTC 10581 was less than 0.8 µg/mL; with B. fragilis NCTC 9343 it was 1.5 µg/mL (≈ 4.09 µM); against B. fragilis WS-1, less than 0.8 µg/mL.

As to `CC1(C)CN=C2C(c3ccccc3)=[N+]([O-])c3cccnc3N2C1` [Example 16, 2,3-Dihydro-2,2-dimethyl-5-phenyl-1H-pyrimido[1,2-a]pyrido[3,2-e]pyrazine 6-oxide], the MIC in assay [1] was less than 0.8 µg/mL; against B. fragilis NCTC 10581 it was 3.1 µg/mL (≈ 10.1 µM); in assay [2] (Clostridium perfringens NCTC 8237) it was 12.5 µg/mL (≈ 40.8 µM); in the assay on B. fragilis NCTC 9343, 1.5 µg/mL (≈ 4.9 µM); against B. fragilis WS-1, less than 0.8 µg/mL; in assay [3] it was 100 µg/mL (≈ 326 µM). The MIC in assay [4] is less than 0.8 µg/mL. Further, the MBC is 3.1 µg/mL (≈ 10.1 µM) in the assay on B. fragilis NCTC 10581, 1.5 µg/mL (≈ 4.9 µM) in the assay with B. fragilis NCTC 9343 and 1.5 µg/mL (≈ 4.9 µM) against B. fragilis WS-1.

These data come from patent publication US4761414A, “Substituted 1H-pyrimido[1,2-a-]-pyrido[3,4-e]pyrazine 6 oxides” (G. D. Searle & Co., priority 1986, dated 1988).
